Source: patent publication US6455495B1, “Methods and compositions for delivery of therapeutic agents to bone tissue employing conjugates of negatively charged peptide oligomers with therapeutic agents” (The Salk Institute for Biological Studies, priority 1997, dated 2002)

Columns and labels:
[1] = R. Fujisawa et al. 1996, cited from earlier work
dihydrofolate reductase = conditions: 1 nmole peptide adsorbed on 1 mg hydroxyapatite; 0.52 nmole DHFR, pH 6.4, shaken 45 minutes; SDS gel, Coumassie Blue
Protocol: The supernatant was removed by centrifugation and the hydroxyapatite was washed with 100 μl of water. Dihydrofolate reductase (0.52 nmole) in 200 μl of buffer containing 0.1 M ammonium sulfate, 0.01 M potassium phosphate, at pH 6.4 and 5% glycerol was added to the hydroxyapatite and shaken for 45 minutes. The hydroxyapatite was separated from the supernatant, washed with 100 μl of water and then eluted twice with 20 μl of 0.02 M K4P2O7. […] The supernatant, the washes and the pyrophosphate eluate were analyzed on a 6% arylamide SDS gel using Coumassie Blue to visualize dihydrofolate reductase.

streptavidin = streptavidin (Streptomyces avidinii, UniProt P22629); test: Recruitment of 125I-labeled streptavidin to hydroxyapatite; type: binding; conditions: 1 nmole peptide on 1 mg hydroxyapatite; 0.1 nmole 125I-streptavidin, 1 M KCl, 0.01 M phosphate pH 6.5, 45 minutes
Protocol: The supernatant was removed by centrifugation, and the conjugate treated hydroxyapatite washed several times with 200 μl of H2O. The amounts of radioactivity found in the supernatant, wash and conjugate treated hydroxyapatite were then measured. In control experiments, biotin-glu10 was replaced by glu10. When a peptide bound to the hydroxyapatite was ligated to biotin about 70% of the streptavidin was recruited to the hydroxyapatite and 25-30% remained in the supernatant. In the control experiment, no more than 5% of the streptavidin was bound to the hydroxyapatite.

streptavidin, sequence (P22629 25-183): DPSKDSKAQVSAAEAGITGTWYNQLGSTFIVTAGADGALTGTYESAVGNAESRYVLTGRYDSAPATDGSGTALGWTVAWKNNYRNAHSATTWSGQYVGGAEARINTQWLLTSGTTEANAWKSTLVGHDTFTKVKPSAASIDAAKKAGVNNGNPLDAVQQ

Substance	adsorption onto hydroxyapatite [1]	effect on mineralization of hydroxyapatite ([1]; in the presence of calcium and phosphate)	dihydrofolate reductase found in the pyrophosphate eluate (dihydrofolate reductase)	streptavidin recruited (bound) to the hydroxyapatite (streptavidin)
Aspartic acid hexamer [Asp6]	significantly adsorb			
glutamic acid hexamer [Glu6]	significantly adsorb	affect the mineralization		
Glutamic acid decapeptide [glu10]			only a small amount	no more than 5%
